From PubChem BioAssay (NCI)
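96-well plates; 48 h exposure; 5 concentrations. Endpoints by linear interpolation between flanking doses. Not reached: highest tested concentration assigned. GI50 marks 50% less growth. At the TGI there is no net growth.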

What was measured:
Experiment in all cases: growth of human tumour cells (NCI), 48 h
[1] = test system: 786-0 renal
[2] = test system: EKVX NSCLC
[3] = test system: HCT-116 colon
[4] = test system: HOP-62 NSCLC
[5] = test system: IGROV1 ovarian
[6] = test system: MDA-MB-435
[7] = test system: NCI-H460 lung
[8] = test system: OVCAR-5 ovarian
[9] = test system: SNB-19 CNS
[10] = test system: SW-620 colon

CCCCCCCCCCCNC=O
TGI [1]: > 100 µM
TGI [2]: > 100 µM
TGI [3]: > 100 µM
TGI [4]: > 100 µM
TGI [5]: > 100 µM
TGI [6]: > 100 µM
TGI [7]: > 100 µM
TGI [8]: > 100 µM
TGI [9]: > 100 µM
TGI [10]: > 100 µM

O=c1cc(-c2ccccc2)[nH]c2c1CCCC2
GI50 [1]: 14.7 µM
TGI [1]: > 100 µM
GI50 [2]: 5.6 µM
TGI [2]: > 100 µM
GI50 [3]: 3.34 µM
TGI [3]: > 100 µM
GI50 [4]: 4.51 µM
TGI [4]: > 100 µM
GI50 [5]: 3.59 µM
TGI [5]: > 100 µM
GI50 [6]: 0.29 µM
TGI [6]: 0.992 µM
GI50 [7]: 3.01 µM
TGI [7]: > 100 µM
GI50 [8]: 14.8 µM
TGI [8]: > 100 µM
GI50 [9]: 8.9 µM
TGI [9]: > 100 µM
GI50 [10]: 1.64 µM
TGI [10]: > 100 µM

NC(N)=NC(N)=Nc1ccc(C(=O)O)cc1
TGI [1]: > 100 µM
TGI [2]: > 100 µM
TGI [3]: > 100 µM
TGI [4]: > 100 µM
TGI [5]: > 100 µM
TGI [6]: > 100 µM
TGI [7]: > 100 µM
TGI [8]: > 100 µM
TGI [9]: > 100 µM
TGI [10]: > 100 µM

CC1CCCC(C#N)(NOC2=NCCN2)C1 (centres undefined)
GI50 [1]: > 100 µM
TGI [1]: > 100 µM
GI50 [2]: 0.0758 µM
TGI [2]: 28.2 µM
GI50 [3]: 31.7 µM
TGI [3]: > 100 µM
GI50 [5]: 30.4 µM
TGI [5]: > 100 µM
GI50 [6]: 35.4 µM
TGI [6]: > 100 µM
GI50 [7]: 43.3 µM
TGI [7]: > 100 µM
GI50 [8]: > 100 µM
TGI [8]: > 100 µM
GI50 [9]: > 100 µM
TGI [9]: > 100 µM
GI50 [10]: 36.3 µM
TGI [10]: > 100 µM

Nc1nc(Cl)nc2c1ncn2C1OC(CO)C(O)C1F (centres undefined)
GI50 [1]: 0.0876 µM
TGI [1]: 13.6 µM
GI50 [2]: 1.46 µM
TGI [2]: > 100 µM
GI50 [3]: 0.0322 µM
TGI [3]: > 100 µM
GI50 [4]: 0.109 µM
TGI [4]: 22.4 µM
GI50 [5]: > 18 µM
TGI [5]: > 100 µM
GI50 [6]: 0.0472 µM
TGI [6]: > 100 µM
GI50 [7]: 0.462 µM
TGI [7]: > 100 µM
GI50 [8]: 5.68 µM
TGI [8]: > 100 µM
GI50 [9]: 0.191 µM
TGI [9]: > 100 µM
GI50 [10]: 0.839 µM
TGI [10]: > 100 µM

N#CC1=C(N)NC(N2CCOCC2)=NC12Nc1ccccc1O2 (centres undefined)
GI50 [1]: 21.5 µM
TGI [1]: 60.1 µM
GI50 [2]: > 100 µM
TGI [2]: > 100 µM
GI50 [4]: 14 µM
TGI [4]: 51.3 µM
GI50 [5]: 9.47 µM
TGI [5]: 57.5 µM
GI50 [6]: 23.5 µM
TGI [6]: 70.2 µM
GI50 [7]: 46.1 µM
TGI [7]: > 100 µM
GI50 [8]: > 100 µM
TGI [8]: > 100 µM
GI50 [9]: 90.7 µM
TGI [9]: > 100 µM
GI50 [10]: 43.2 µM
TGI [10]: > 100 µM

CN1CCN(Cc2ccc(NC(=O)c3[nH]ncc3Nc3ncnc4[nH]ccc34)cc2)CC1
GI50 [1]: 0.301 µM
TGI [1]: 2 µM
GI50 [2]: 0.368 µM
TGI [2]: 2.64 µM
GI50 [3]: 0.214 µM
TGI [3]: 13.1 µM
GI50 [4]: 0.348 µM
TGI [4]: 3.44 µM
GI50 [5]: 0.436 µM
TGI [5]: 10.7 µM
GI50 [6]: 0.298 µM
TGI [6]: 1.71 µM
GI50 [7]: 0.328 µM
TGI [7]: 4.67 µM
GI50 [8]: 0.456 µM
TGI [8]: 17.4 µM
GI50 [9]: 0.373 µM
TGI [9]: 6.59 µM
GI50 [10]: 0.381 µM
TGI [10]: 11.6 µM

CC(=O)c1c[nH]c2ccc(-c3ccnc(Nc4ccc(NC(=O)C5CCCC5)c(CN5CCOCC5)c4)n3)cc12
GI50 [1]: 0.031 µM
TGI [1]: 2.63 µM
GI50 [2]: 0.0382 µM
TGI [2]: 0.457 µM
GI50 [3]: 0.0138 µM
TGI [3]: 0.953 µM
GI50 [4]: 0.0403 µM
TGI [4]: 3.52 µM
GI50 [5]: 0.0366 µM
TGI [5]: 0.377 µM
GI50 [6]: 0.0286 µM
TGI [6]: 0.121 µM
GI50 [7]: 0.033 µM
TGI [7]: 0.125 µM
GI50 [8]: 0.0296 µM
TGI [8]: 0.222 µM
GI50 [9]: 0.041 µM
TGI [9]: 7.96 µM
GI50 [10]: 0.0387 µM
TGI [10]: 0.551 µM

CN1CCN(CCCOc2ccc3nc(Nc4ccc(F)c(F)c4)ccc3c2)CC1
GI50 [1]: 1.62 µM
TGI [1]: 3.3 µM
GI50 [2]: 3.17 µM
TGI [2]: 13.1 µM
GI50 [3]: 1.49 µM
TGI [3]: 3.17 µM
GI50 [4]: 1.86 µM
TGI [4]: 3.88 µM
GI50 [5]: 3.11 µM
TGI [5]: 9.01 µM
GI50 [6]: 1.68 µM
TGI [6]: 3.36 µM
GI50 [7]: 1.91 µM
TGI [7]: 4.12 µM
GI50 [8]: 2.26 µM
TGI [8]: 5.62 µM
GI50 [9]: 2.08 µM
TGI [9]: 4.79 µM
GI50 [10]: 1.82 µM
TGI [10]: 3.71 µM

CC(C)C1(NC(=O)C2CC3c4cccc5[nH]cc(c45)CC3N(C)C2)OC2(O)C3CCCN3C(=O)C(Cc3ccccc3)N2C1=O (centres undefined)
TGI [1]: > 100 µM
TGI [2]: > 100 µM
TGI [3]: > 100 µM
TGI [4]: > 100 µM
TGI [5]: > 100 µM
TGI [6]: > 100 µM
TGI [7]: > 100 µM
TGI [8]: > 100 µM
TGI [9]: > 100 µM
TGI [10]: > 100 µM

CC12CCC(=O)C(O1)C1C(=O)c3ccc4c(ccc5ccccc54)c3C(=O)C12 (centres undefined)
GI50 [1]: 2.35 µM
TGI [1]: 6.01 µM
GI50 [2]: 8.47 µM
TGI [2]: 19 µM
GI50 [3]: 3.03 µM
TGI [3]: 4.71 µM
GI50 [4]: 26.5 µM
TGI [4]: 50.3 µM
GI50 [5]: 7.09 µM
TGI [5]: > 100 µM
GI50 [6]: 13 µM
TGI [6]: 26.4 µM
GI50 [7]: 4.84 µM
TGI [7]: 11.8 µM
GI50 [8]: 6.64 µM
TGI [8]: 11.4 µM
GI50 [9]: 20.9 µM
TGI [9]: 52 µM

Cc1nc(NS(=O)(=O)c2ccc(NCN3C(=O)c4ccccc4C3=O)cc2)oc1C
GI50 [1]: > 100 µM
TGI [1]: > 100 µM
GI50 [2]: > 100 µM
TGI [2]: > 100 µM
GI50 [3]: > 100 µM
TGI [3]: > 100 µM
GI50 [4]: > 100 µM
TGI [4]: > 100 µM
GI50 [5]: > 100 µM
TGI [5]: > 100 µM
GI50 [6]: > 100 µM
TGI [6]: > 100 µM
GI50 [7]: > 100 µM
TGI [7]: > 100 µM
GI50 [8]: > 100 µM
TGI [8]: > 100 µM
GI50 [9]: > 100 µM
TGI [9]: > 100 µM
GI50 [10]: > 100 µM
TGI [10]: > 100 µM

COC(=O)CC1(O)C=CC(=O)C=C1
TGI [1]: 6.89 µM
TGI [2]: 15.5 µM
TGI [3]: 26.7 µM
TGI [4]: 18.1 µM
TGI [5]: 5.04 µM
TGI [6]: 21.8 µM
TGI [7]: 5.02 µM
TGI [8]: 25 µM
TGI [9]: 21.3 µM
TGI [10]: 27.3 µM

COc1cc(C2c3cc4c(cc3OC(O)C2C)OCO4)cc(OC)c1OC (centres undefined)
TGI [1]: > 100 µM
TGI [2]: > 100 µM
TGI [3]: > 69.9 µM
TGI [4]: > 100 µM
TGI [5]: 51.1 µM
TGI [6]: 0.156 µM
TGI [7]: > 51.3 µM
TGI [8]: > 100 µM
TGI [9]: > 100 µM
TGI [10]: > 100 µM

CC(C)=Cc1cc(CCC/C(C)=C/Cc2c(O)cc(C)c(C(=O)O)c2O)co1
TGI [1]: > 100 µM
TGI [2]: > 100 µM
TGI [3]: > 100 µM
TGI [4]: > 100 µM
TGI [5]: > 100 µM
TGI [6]: > 100 µM
TGI [7]: > 100 µM
TGI [8]: > 100 µM
TGI [9]: > 100 µM
TGI [10]: > 100 µM
